System: rodent lifetime carcinogenesis bioassay, tumor incidence TD50
Experiment: chronic cancer bioassays in animals – CPDB, compiled studies (AID 1745844)
Conditions: by gavage

`ClCC(Cl)CCl` showed a TD50 (mouse, strain B6C3F1, females, site: Harderian gland, lesion: adenoma + adenoma, bilateral, dosed 88 weeks, study length 104 weeks) of 7.05 mg/kg/day, a TD50 (mouse, strain B6C3F1, females, site: all sites, lesion: histiocytic sarcoma + malignant lymphoma, histiocytic type + malignant lymphoma, mixed type + malignant lymphoma, lymphocytic, dosed 88 weeks, study length 104 weeks) of 8.64 mg/kg/day and a TD50 (mouse, strain B6C3F1, females, site: all sites, lesion: malignant lymphoma, histiocytic type + malignant lymphoma, mixed type + malignant lymphoma, lymphocytic type + malignant lymph, dosed 88 weeks, study length 104 weeks) of 7.08 mg/kg/day. The TD50 (mouse, strain B6C3F1, females, site: any site (literature study), lesion: several types, types named in the paper, dosed 88 weeks, study length 104 weeks) was 0.806 mg/kg/day, the TD50 (mouse, strain B6C3F1, females, site: forestomach + Harderian gland + liver + palate + pharynx + uterus, lesion: squamous-cell carcinoma + squamous-cell papilloma + adenoma + adenoma, bilateral + hepatocellular adenoma + hepatocellular carcino, dosed 88 weeks, study length 104 weeks) was 0.826 mg/kg/day and the TD50 (mouse, strain B6C3F1, females, site: forestomach, lesion: squamous-cell carcinoma + squamous-cell papilloma, dosed 88 weeks, study length 104 weeks) was 0.828 mg/kg/day. The TD50 (mouse, strain B6C3F1, females, site: forestomach, lesion: squamous-cell carcinoma, dosed 88 weeks, study length 104 weeks) was 0.97 mg/kg/day, the TD50 (mouse, strain B6C3F1, females, site: forestomach, lesion: squamous-cell papilloma, dosed 88 weeks, study length 104 weeks) was 1.64 mg/kg/day and the TD50 (mouse, strain B6C3F1, females, site: liver, lesion: hepatocellular adenoma + hepatoblastoma + hepatocellular carcinoma, dosed 88 weeks, study length 104 weeks) was 2.93 mg/kg/day. For the same compound, the TD50 (mouse, strain B6C3F1, females, site: liver, lesion: hepatocellular adenoma + hepatocellular carcinoma, dosed 88 weeks, study length 104 weeks) was 2.93 mg/kg/day, the TD50 (mouse, strain B6C3F1, females, site: liver, lesion: hepatocellular adenoma, dosed 88 weeks, study length 104 weeks) was 3.33 mg/kg/day and the TD50 (mouse, strain B6C3F1, females, site: liver, lesion: hepatocellular carcinoma, dosed 88 weeks, study length 104 weeks) was 28.7 mg/kg/day. It also gave a TD50 (mouse, strain B6C3F1, females, site: lung, lesion: alveolar/bronchiolar adenoma + alveolar/bronchiolar carcinoma, dosed 88 weeks, study length 104 weeks) of 14.3 mg/kg/day, a TD50 (mouse, strain B6C3F1, females, site: lung, lesion: alveolar/bronchiolar adenoma, dosed 88 weeks, study length 104 weeks) of 14.6 mg/kg/day and a TD50 (mouse, strain B6C3F1, females, site: palate + pharynx + tongue, lesion: squamous-cell carcinoma + squamous-cell papilloma, dosed 88 weeks, study length 104 weeks) of 47 mg/kg/day. For the same compound, the TD50 (mouse, strain B6C3F1, females, site: palate + pharynx, lesion: squamous-cell carcinoma, dosed 88 weeks, study length 104 weeks) was 154 mg/kg/day, the TD50 (mouse, strain B6C3F1, females, site: uterus, lesion: endometrial stromal polyp, dosed 88 weeks, study length 104 weeks) was 22.9 mg/kg/day and the TD50 (mouse, strain B6C3F1, females, site: uterus, lesion: endometrium, adenocarcinoma, dosed 88 weeks, study length 104 weeks) was 8.47 mg/kg/day. The TD50 (mouse, strain B6C3F1, females, site: uterus, lesion: endometrium, adenoma + endometrium, adenocarcinoma, dosed 88 weeks, study length 104 weeks) was 6.62 mg/kg/day, the TD50 (mouse, strain B6C3F1, females, site: uterus, lesion: endometrium, adenoma, dosed 88 weeks, study length 104 weeks) was 34.9 mg/kg/day and the TD50 (mouse, strain B6C3F1, males, site: Harderian gland, lesion: adenoma, dosed 90 weeks, study length 104 weeks) was 13.7 mg/kg/day. The TD50 (mouse, strain B6C3F1, males, site: any site (literature study), lesion: several types, types named in the paper, dosed 90 weeks, study length 104 weeks) was 1.06 mg/kg/day, the TD50 (mouse, strain B6C3F1, males, site: forestomach + Harderian gland + liver, lesion: squamous-cell carcinoma + squamous-cell papilloma + adenoma + hepatocellular adenoma + hepatocellular carcinoma, dosed 90 weeks, study length 104 weeks) was 0.996 mg/kg/day and the TD50 (mouse, strain B6C3F1, males, site: forestomach, lesion: squamous-cell carcinoma + squamous-cell papilloma, dosed 90 weeks, study length 104 weeks) was 0.928 mg/kg/day. The TD50 (mouse, strain B6C3F1, males, site: forestomach, lesion: squamous-cell carcinoma, dosed 90 weeks, study length 104 weeks) was 1.34 mg/kg/day, the TD50 (mouse, strain B6C3F1, males, site: forestomach, lesion: squamous-cell papilloma, dosed 90 weeks, study length 104 weeks) was 1.63 mg/kg/day and the TD50 (mouse, strain B6C3F1, males, site: liver, lesion: hepatocellular adenoma + hepatoblastoma + hepatocellular carcinoma, dosed 90 weeks, study length 104 weeks) was 2.13 mg/kg/day. It also gave a TD50 (mouse, strain B6C3F1, males, site: liver, lesion: hepatocellular adenoma + hepatocellular carcinoma, dosed 90 weeks, study length 104 weeks) of 2.13 mg/kg/day, a TD50 (mouse, strain B6C3F1, males, site: liver, lesion: hepatocellular adenoma, dosed 90 weeks, study length 104 weeks) of 2.87 mg/kg/day and a TD50 (mouse, strain B6C3F1, males, site: liver, lesion: hepatocellular carcinoma, dosed 90 weeks, study length 104 weeks) of 6.28 mg/kg/day. It also gave a TD50 (mouse, strain B6C3F1, males, site: lung, lesion: alveolar/bronchiolar adenoma + alveolar/bronchiolar carcinoma, dosed 90 weeks, study length 104 weeks) of 9.32 mg/kg/day, a TD50 (mouse, strain B6C3F1, males, site: lung, lesion: alveolar/bronchiolar adenoma, dosed 90 weeks, study length 104 weeks) of 11.2 mg/kg/day and a TD50 (mouse, strain B6C3F1, males, site: tongue, lesion: squamous-cell papilloma, dosed 90 weeks, study length 104 weeks) of 454 mg/kg/day. The TD50 (rat, strain Fischer 344, females, site: Zymbal's gland, lesion: carcinoma, dosed 91 weeks, study length 105 weeks) was 59 mg/kg/day, the TD50 (rat, strain Fischer 344, females, site: all sites, lesion: mononuclear-cell leukemia, dosed 91 weeks, study length 105 weeks) was 7.11 mg/kg/day and the TD50 (rat, strain Fischer 344, females, site: any site (literature study), lesion: several types, types named in the paper, dosed 91 weeks, study length 105 weeks) was 1.02 mg/kg/day. For the same compound, the TD50 (rat, strain Fischer 344, females, site: clitoral gland + forestomach + mammary gland + palate + pharynx + tongue + Zymbal's gland, lesion: adenoma + adenoma, bilateral + carcinoma + carcinoma, bilateral + squamous-cell carcinoma + squamous-cell papilloma + adenocarcinoma, dosed 91 weeks, study length 105 weeks) was 1.07 mg/kg/day, the TD50 (rat, strain Fischer 344, females, site: clitoral gland, lesion: adenoma + adenoma, bilateral + carcinoma + carcinoma, bilateral, dosed 91 weeks, study length 105 weeks) was 3.58 mg/kg/day and the TD50 (rat, strain Fischer 344, females, site: clitoral gland, lesion: adenoma + adenoma, bilateral, dosed 91 weeks, study length 105 weeks) was 4.04 mg/kg/day. For the same compound, the TD50 (rat, strain Fischer 344, females, site: clitoral gland, lesion: carcinoma + carcinoma, bilateral, dosed 91 weeks, study length 105 weeks) was 49.5 mg/kg/day, the TD50 (rat, strain Fischer 344, females, site: colon + jejunum, lesion: adenocarcinoma, dosed 91 weeks, study length 105 weeks) was 78.4 mg/kg/day and the TD50 (rat, strain Fischer 344, females, site: forestomach, lesion: squamous-cell carcinoma + squamous-cell papilloma, dosed 91 weeks, study length 105 weeks) was 1.64 mg/kg/day. The TD50 (rat, strain Fischer 344, females, site: forestomach, lesion: squamous-cell carcinoma, dosed 91 weeks, study length 105 weeks) was 7.77 mg/kg/day, the TD50 (rat, strain Fischer 344, females, site: forestomach, lesion: squamous-cell papilloma, dosed 91 weeks, study length 105 weeks) was 1.94 mg/kg/day and the TD50 (rat, strain Fischer 344, females, site: liver, lesion: hepatocellular adenoma + hepatoblastoma + hepatocellular carcinoma, dosed 91 weeks, study length 105 weeks) was 81.4 mg/kg/day. For the same compound, the TD50 (rat, strain Fischer 344, females, site: mammary gland, lesion: adenocarcinoma + adenoma + fibroadenoma, dosed 91 weeks, study length 105 weeks) was 1.98 mg/kg/day, the TD50 (rat, strain Fischer 344, females, site: mammary gland, lesion: adenocarcinoma + adenoma, dosed 91 weeks, study length 105 weeks) was 5.5 mg/kg/day and the TD50 (rat, strain Fischer 344, females, site: mammary gland, lesion: adenocarcinoma, dosed 91 weeks, study length 105 weeks) was 5.91 mg/kg/day. It also gave a TD50 (rat, strain Fischer 344, females, site: mammary gland, lesion: adenoma + fibroadenoma, dosed 91 weeks, study length 105 weeks) of 3.32 mg/kg/day.
